Laboratory results: patent US20250388542A1, “ANALOGUES OF PENTAMIDINE AND USES THEREFOR” (Auransa Inc., priority 2018, published 2025)
pIC50: −log10 of the molar value. Values joined by “and” are separate entries in the source; they are usually repeats but may differ in a detail not shown here. Identical values can stand only once. “Also recorded” adds a separate entry of the source.

Key:
Human microsomal CL rate = assay type: in vitro ADME; conditions: human microsomes
NCI-H209 = assay: CellTiter-Glo luminescent cell viability assay; assay type: cell-based; conditions: Homo sapiens
Procedure: (§1) The objective of this study is to investigate potential cell killing effect of Compounds 1-15 on 3 cancer cell lines. 50% inhibition concentration (IC50) was determined for these compounds in various cancer cell lines using CellTiter-Glo™ luminescent cell viability assay at different compound concentrations. Each cell line (e.g., NCI-H209; NCI-H69; and SW1271) was treated with Compounds 1-15 and culture medium contains 0.2% [v/v] DMSO vehicle control. All the cells were cultured in the media supplemented with 10-20% fetal bovine serum at 37° C., 5% CO2 and 95% humidity.

NCI-H69 = assay: CellTiter-Glo luminescent cell viability assay; assay type: cell-based; conditions: Homo sapiens
Procedure: as §1

[1] = test system: Hep3B2.1-7-Luc liver orthotopic model; assay: Liver orthotopic in vivo analysis; conditions: for mean Total Flux: Q3D for a week then QD three weeks, day 28 post grouping; for Whole liver (with tumor) weights: individual animals 1-8; for Tumor sizes vs vehicle: nonparametric ANOVA followed by Kruskal-Wallis test; for Tumor sizes (signal intensity) vs vehicle: two-way ANOVA and Bonferroni post-test
Procedure: In this study, the in vivo therapeutic effect of Compound 1 on liver cancer was evaluated in an orthotopic mouse model using Hep3B2.1-7-Luc cell line. Three groups of orthotopic model in BALB/c nude mice were treated with vehicle, Compound 1 at 10 mg/kg, and Compound 1 at 20 mg/kg orally (p.o.) Q3D for a week followed by QD for three weeks. The mean Total Flux (photons/s/10^6) of the mice in vehicle control group reached 1223.01 photons/s/10^6 at day 28 post grouping. The mean Total Flux (photons/s/10^6) was 464.74 and 306.74 for Compound 1 (10 mg/kg) group and Compound 1 (20 mg/kg) group at day 28 post grouping.
A One-way ANOVA combined with Dunnett post-test was performed to compare the results of serum-derived blood chemistries (including ALT, AST, ALP, TP, ALB, UA, UREA, Glu, TC, TG, Ca, Mg, P, CK, LDH, GLB, A/G and CREA) among vehicle and treatment groups. A nonparametric ANOVA followed by Kruskal-Wallis test was performed to compare serum-derived blood chemistries (including ALT, AST and ALP) among vehicle and treatment groups.

[2] = test system: COLO 205-Luc colon cancer tumor cells; assay: Colon orthotopic in vivo study; conditions: for Body weight (mean ± SEM): in g (unit assumed)
Procedure: Approximately 2.0× Luciferase stably expressing colon cancer tumor cells (COLO 205-Luc) cells suspended in 30 μl of DPBS were injected into cecum wall of BALB/c nude mice.
The animals were assigned into groups using an Excel-based randomization software performing stratified randomization based upon their bioluminescence intensity. Treatment was initiated according to the predetermined regimen as shown in the experimental design table.
Mice were administered compound 1 at 10 mg/k daily, 20 mg/kg daily, 10 mg/kg twice daily, 20 mg/kg twice daily, or 40 mg/kg daily.
The major efficacy endpoint was bioluminescence (intensity values and change from baseline). The surgically inoculated mice were weighed and intraperitoneally administered luciferin at a dose of 150 mg/kg. Ten minutes after the luciferin injection, the animals were pre-anesthetized with the mixture gas of oxygen and isoflurane. When the animals were in a complete anesthetic state, the mice were moved into the imaging chamber for bioluminescence measurements with an IVIS (Lumina II) imaging system. The bioluminescence of the whole animal body, including primary and metastatic tumors, was measured and recorded once per week.
Tumor Growth Inhibition (TGI) was calculated for each group using the formula: TGI (%)=[1−(Ti−T0)/(Vi−V0)]×100; Ti is the average tumor bioluminescence value of a treatment group on a given day, T0 is the average tumor bioluminescence value of the treatment group on day 0, Vi is the average tumor bioluminescence value of the vehicle control group on the same day with Ti, and V0 is the average tumor bioluminescence value of the vehicle group on day 0.
For comparison among three or more groups, a one-way ANOVA was performed. When a non-significant F-statistics (a ratio of treatment variance to the error variance) was obtained, comparisons between groups were carried out with Dunnett t(2-sided). All data were analyzed using SPSS 17.0. p<0.05 is considered to be statistically significant.

[3] = 10 mg/kg, BID, day 0 after the start of treatment
[4] = 10 mg/kg, QD, day 0 after the start of treatment
[5] = 20 mg/kg, BID, day 0 after the start of treatment
[6] = 20 mg/kg, QD, day 0 after the start of treatment
[7] = 40 mg/kg, QD, day 0 after the start of treatment

SMILES: N=C(N)c1ccc(OCCCCCOc2ccc(C(=N)N)nc2)cc1 [Compound 1, 5-(5-(4-carbamimidoylphenoxy)pentyloxy)picolinimidamide]
- microsomal CLint (Human microsomal CL rate): 13.6 µL/min/mg
- pIC50 (NCI-H209): 5.77
- pIC50 (NCI-H69): 6.07
- tolerability, body weight loss ([1]; 10 mg/kg and 20 mg/kg p.o.): well tolerated in both 10 mg/kg and 20 mg/kg groups with no obvious body weight loss; also recorded: well tolerated at both doses level tested
- anti-tumor effect compared to vehicle group (Total Flux) ([1]; 10 mg/kg p.o.): significant anti-tumor effect at day 8 to day 18 and day 28
- mean Total Flux ([1]; 10 mg/kg p.o.): 464.74 photons/s/10^6
- Whole liver (with tumor) weights ([1]; 10 mg/kg): 1.334 g and 2.415 g and 2.602 g and 2.280 g and 3.035 g and 1.817 g and 2.019 g and 2.311 g
- Tumor sizes vs vehicle ([1]; 10 mg/kg): no significant difference during the treatment days
- Tumor sizes (signal intensity) vs vehicle ([1]; 10 mg/kg): significant difference at day 25 and extremely significant difference at day 28
- anti-tumor effect compared to vehicle group (Total Flux) ([1]; 20 mg/kg p.o.): significant anti-tumor effect at day 8 to day 28
- mean Total Flux ([1]; 20 mg/kg p.o.): 306.74 photons/s/10^6
- in vivo anti-tumor activity (summary) ([1]; 20 mg/kg, day 25 and day 28): significant in vivo anti-tumor activity
- Whole liver (with tumor) weights ([1]; 20 mg/kg): 1.681 g and 2.243 g and 1.645 g and 2.012 g and 1.926 g and 1.610 g and 1.603 g and 2.260 g
- Tumor sizes vs vehicle ([1]; 20 mg/kg): significant difference at day 28 and extremely significant difference at day 25
- Tumor sizes (signal intensity) vs vehicle ([1]; 20 mg/kg): extremely significant difference at day 22 to day 28
- levels of liver injury/damage markers ALT and AST ([1]; serum, 10 mg/kg and 20 mg/kg): significant reduction in levels of liver injury/damage markers, i.e., ALT and AST, in a dose dependent manner
- Relative bioluminescence (mean ± SEM) [2, 3]: 100 ± 0%
- Body weight (mean ± SEM) [2, 3]: 21.0 ± 0.4
- Body weight (mean ± SEM) ([2]; 10 mg/kg, BID, day 3): 21.2 ± 0.4
- Relative bioluminescence (mean ± SEM) ([2]; 10 mg/kg, BID, day 7): 447 ± 103%
- Body weight (mean ± SEM) ([2]; 10 mg/kg, BID, day 7): 21.2 ± 0.4
- Body weight (mean ± SEM) ([2]; 10 mg/kg, BID, day 10): 21.2 ± 0.3
- Relative bioluminescence (mean ± SEM) ([2]; 10 mg/kg, BID, day 14): 1033 ± 385%
- Body weight (mean ± SEM) ([2]; 10 mg/kg, BID, day 14): 21.8 ± 0.4
- Body weight (mean ± SEM) ([2]; 10 mg/kg, BID, day 17): 22.1 ± 0.4
- Relative bioluminescence (mean ± SEM) ([2]; 10 mg/kg, BID, day 22): 2993 ± 1325%
- Body weight (mean ± SEM) ([2]; 10 mg/kg, BID, day 22): 21.2 ± 0.4
- Body weight (mean ± SEM) ([2]; 10 mg/kg, BID, day 24): 21.5 ± 0.3
- Relative bioluminescence (mean ± SEM) ([2]; 10 mg/kg, BID, day 28): 2715 ± 950%
- Body weight (mean ± SEM) ([2]; 10 mg/kg, BID, day 28): 22.0 ± 0.3
- Relative bioluminescence (mean ± SEM) [2, 4]: 100 ± 0%
- Body weight (mean ± SEM) [2, 4]: 20.9 ± 0.5
- Body weight (mean ± SEM) ([2]; 10 mg/kg, QD, day 3): 21.4 ± 0.5
- Relative bioluminescence (mean ± SEM) ([2]; 10 mg/kg, QD, day 7): 351 ± 88%
- Body weight (mean ± SEM) ([2]; 10 mg/kg, QD, day 7): 21.6 ± 0.5
- Body weight (mean ± SEM) ([2]; 10 mg/kg, QD, day 10): 21.5 ± 0.4
- Relative bioluminescence (mean ± SEM) ([2]; 10 mg/kg, QD, day 14): 1425 ± 930%
- Body weight (mean ± SEM) ([2]; 10 mg/kg, QD, day 14): 21.7 ± 0.4
- Body weight (mean ± SEM) ([2]; 10 mg/kg, QD, day 17): 21.7 ± 0.4
- Relative bioluminescence (mean ± SEM) ([2]; 10 mg/kg, QD, day 22): 2819 ± 1388%
- Body weight (mean ± SEM) ([2]; 10 mg/kg, QD, day 22): 21.7 ± 0.5
- Body weight (mean ± SEM) ([2]; 10 mg/kg, QD, day 24): 22.2 ± 0.6
- Relative bioluminescence (mean ± SEM) ([2]; 10 mg/kg, QD, day 28): 3171 ± 1602%
- Body weight (mean ± SEM) ([2]; 10 mg/kg, QD, day 28): 22.6 ± 0.5
- reducing tumor growth ([2]; 20 mg/kg or 40 mg/kg daily): non-statistically significant trend
- Relative bioluminescence (mean ± SEM) [2, 5]: 100 ± 0%
- Body weight (mean ± SEM) [2, 5]: 20.9 ± 0.5
- Body weight (mean ± SEM) ([2]; 20 mg/kg, BID, day 3): 20.9 ± 0.5
- Relative bioluminescence (mean ± SEM) ([2]; 20 mg/kg, BID, day 7): 299 ± 91%
- Body weight (mean ± SEM) ([2]; 20 mg/kg, BID, day 7): 21.1 ± 0.5
- Body weight (mean ± SEM) ([2]; 20 mg/kg, BID, day 10): 21.1 ± 0.5
- Relative bioluminescence (mean ± SEM) ([2]; 20 mg/kg, BID, day 14): 1108 ± 433%
- Body weight (mean ± SEM) ([2]; 20 mg/kg, BID, day 14): 21.5 ± 0.6
- Body weight (mean ± SEM) ([2]; 20 mg/kg, BID, day 17): 21.6 ± 0.6
- Relative bioluminescence (mean ± SEM) ([2]; 20 mg/kg, BID, day 22): 2340 ± 1230%
- Body weight (mean ± SEM) ([2]; 20 mg/kg, BID, day 22): 20.9 ± 0.5
- Body weight (mean ± SEM) ([2]; 20 mg/kg, BID, day 24): 21.3 ± 0.5
- Relative bioluminescence (mean ± SEM) ([2]; 20 mg/kg, BID, day 28): 1877 ± 1076%
- Body weight (mean ± SEM) ([2]; 20 mg/kg, BID, day 28): 21.7 ± 0.5
- Relative bioluminescence (mean ± SEM) [2, 6]: 100 ± 0%
- Body weight (mean ± SEM) [2, 6]: 20.8 ± 0.4
- Body weight (mean ± SEM) ([2]; 20 mg/kg, QD, day 3): 20.8 ± 0.3
- Relative bioluminescence (mean ± SEM) ([2]; 20 mg/kg, QD, day 7): 171 ± 46%
- Body weight (mean ± SEM) ([2]; 20 mg/kg, QD, day 7): 20.8 ± 0.4
- Body weight (mean ± SEM) ([2]; 20 mg/kg, QD, day 10): 21.0 ± 0.3
- Relative bioluminescence (mean ± SEM) ([2]; 20 mg/kg, QD, day 14): 817 ± 269%
- Body weight (mean ± SEM) ([2]; 20 mg/kg, QD, day 14): 21.2 ± 0.3
- Body weight (mean ± SEM) ([2]; 20 mg/kg, QD, day 17): 21.3 ± 0.4
- Relative bioluminescence (mean ± SEM) ([2]; 20 mg/kg, QD, day 22): 923 ± 354%
- Body weight (mean ± SEM) ([2]; 20 mg/kg, QD, day 22): 21.1 ± 0.4
- Body weight (mean ± SEM) ([2]; 20 mg/kg, QD, day 24): 21.6 ± 0.3
- Relative bioluminescence (mean ± SEM) ([2]; 20 mg/kg, QD, day 28): 1613 ± 1022%
- Body weight (mean ± SEM) ([2]; 20 mg/kg, QD, day 28): 21.5 ± 0.4
- Relative bioluminescence (mean ± SEM) [2, 7]: 100 ± 0%
- Body weight (mean ± SEM) [2, 7]: 20.7 ± 0.5
- Body weight (mean ± SEM) ([2]; 40 mg/kg, QD, day 3): 20.7 ± 0.5
- Relative bioluminescence (mean ± SEM) ([2]; 40 mg/kg, QD, day 7): 210 ± 57%
- Body weight (mean ± SEM) ([2]; 40 mg/kg, QD, day 7): 20.2 ± 0.4
- Body weight (mean ± SEM) ([2]; 40 mg/kg, QD, day 10): 20.3 ± 0.5
- Relative bioluminescence (mean ± SEM) ([2]; 40 mg/kg, QD, day 14): 357 ± 109%
- Body weight (mean ± SEM) ([2]; 40 mg/kg, QD, day 14): 20.5 ± 0.5
- Body weight (mean ± SEM) ([2]; 40 mg/kg, QD, day 17): 20.5 ± 0.5
- Relative bioluminescence (mean ± SEM) ([2]; 40 mg/kg, QD, day 22): 525 ± 145%
- Body weight (mean ± SEM) ([2]; 40 mg/kg, QD, day 22): 20.4 ± 0.5
- Body weight (mean ± SEM) ([2]; 40 mg/kg, QD, day 24): 21.0 ± 0.5
- Relative bioluminescence (mean ± SEM) ([2]; 40 mg/kg, QD, day 28): 512 ± 206%
- Body weight (mean ± SEM) ([2]; 40 mg/kg, QD, day 28): 21.3 ± 0.5
- body weight loss as indirect measure of toxicity ([2]; all dose groups 10-40 mg/kg QD, 10-20 mg/kg BID): No groups lost weight obviously
- toxicity / tolerability ([2]; tumor-bearing BALB/c nude mice, all dose groups): no obvious toxicity; also recorded: does not have significant toxicity and is well tolerated
